In brackets after ≈: the same amount, converted by molar mass. Entries after “also recorded” stand apart in the source; their conditions may differ. Read-outs that look alike come from different tables or passages of the source. Where a SMILES comes first, the peptide text is derived from it.
How the values were obtained:
[1] = test system: Enterobacter amnigenus ATCC 33072; format: cell-based
Procedure: (§1) Cloacaenodin was evaluated against several common laboratory strains as well as commercially acquired strains using a spot-on-lawn assay.^45 Strains were streaked out onto LB agar plates and incubated overnight at their recommended temperatures. A single colony was then used to inoculate an overnight culture in 5 mL of LB broth. After shaking at 250 rpm at the recommended temperature for each strain, 50 μL of the overnight culture was used to inoculate 5 mL of LB broth (volume ratio 1:100). These cultures were grown for a few hours until they reached the exponential phase (OD600˜0.4-0.6) before being added to 10 mL of soft M63 agar at a final cell density of 10^7 CFUs/mL, or 10^8 CFUs total in 10 mL. The M63 soft agar was composed of 2 g/L of (NH4)2SO4 (EMD MilliporeSigma), 13.6 g/L of KH2PO4 (Fisher), 40 mg/L of each of the 20 common amino acids, 0.2% glucose (Sigma), 0.00005% w/v thiamine hydrochloride (Sigma), and 0.65% w/v bacteriological-grade agar (Apex Bioresearch). […] Upon solidification, 10 μL of purified cloacaenodin in water at two-fold dilutions were then spotted onto the agar and allowed to dry. The plates were incubated overnight at the strains' recommended temperatures and analyzed the next morning for activity. The MIC is defined as the last dilution where a spot was visible.

[2] = test system: Enterobacter asburiae DSM 17506; format: cell-based
Procedure: as §1

[3] = test system: Enterobacter cloacae ATCC 13047; format: cell-based
Procedure: as §1

[4] = test system: Enterobacter mori DSM 26271; format: cell-based
Procedure: as §1

E. coli MG1655 = test: Spot-on-lawn assay in M63 agar; format: cell-based, Escherichia coli; conditions: purified cloacaenodin in water
Procedure: as §1

[5] = test system: clinical isolates of Enterobacter; test: Spot-on-lawn assay, panel of clinical isolates (Table 7); format: cell-based
Procedure: The type strain of Enterobacter cloacae (ATCC 13047) tested as discussed above was isolated from human cerebrospinal fluid in 1890^66 before the era of antibiotics. The activity of cloacaenodin was also tested against more recent clinical isolates. A panel of two (2) clinical isolates of Enterobacter using the spot-on-lawn assay was tested (Table 7).
Cloacaenodin was evaluated against several common laboratory strains as well as commercially acquired strains using a spot-on-lawn assay.^45 Strains were streaked out onto LB agar plates and incubated overnight at their recommended temperatures. A single colony was then used to inoculate an overnight culture in 5 mL of LB broth. After shaking at 250 rpm at the recommended temperature for each strain, 50 μL of the overnight culture was used to inoculate 5 mL of LB broth (volume ratio 1:100). These cultures were grown for a few hours until they reached the exponential phase (OD600˜0.4-0.6) before being added to 10 mL of soft M63 agar at a final cell density of 10^7 CFUs/mL, or 10^8 CFUs total in 10 mL. […] The plates were incubated overnight at the strains' recommended temperatures and analyzed the next morning for activity. […]

Enterobacter amnigenus = format: cell-based
Procedure: (§2) For liquid inhibition assays, 5 mL LB broth was inoculated with 40-50 μL of an overnight culture of E. cloacae or E. amnigenus. […] The plate was shaken at 30° C. at 250 rpm for E. cloacae, and 37° C. at 250 rpm for E. amnigenus. The OD600 was measured at 8-hour and 16-hour increments. The MIC is defined as the lowest concentration of cloacaenodin for which growth (as assessed by the OD600) was inhibited.

[6] = test system: Enterobacter cloacae ATCC 13047; format: cell-based; remark: listed apart in the source
Procedure: as §2

[7] = test system: Escherichia coli XL-1 Blue; test: Intracellular toxicity: IPTG-induced expression from plasmid lacking cloD; format: cell-based; conditions: IPTG induction
Procedure: After characterizing the structure and proteolytic resistance of cloacaenodin, cloacaenodin's inhibition of bacterial growth was tested. As a preliminary test of antimicrobial activity, a version of the expression plasmid from which the cloD gene was removed was cloned, so that the lasso peptide could not be exported by the Escherichia coli upon isopropyl β-D-1-thiogalactopyranoside (IPTG)-induced expression.
Cloacaenodin variants were constructed using site-directed mutagenesis. Mutant precursor genes were amplified from the wild-type precursor in pAK2 using mutagenic primers. Following PCR amplification of the mutated precursor gene, the purified PCR product was digested and ligated into pAK2 with the EcoRI and HindIII restriction sites. For the pMP3 plasmid for deletion of the cloD gene, the D gene was first disrupted by digestion of pAK2 with BamHI and NcoI, which removed the entire cloD gene and the C-terminal portion of the cloC gene. The digested plasmid was then ligated with an insert that restored the C-terminal portion of the cloC gene. All mutants were sequence confirmed by Genewiz (now Azenta) before use.

[8] = Heating assay at 95° C., LC-MS; format: physicochemical; conditions: 1.5 hours
Procedure: The threaded nature of the collected cloacaenodin sample was next sought to be verified, because the threaded structure is crucial to the bioactivity of lasso peptides.^50 Heat treatment of certain lasso peptides leads to their unthreading: the unthreaded species often elutes differently than the threaded peptide.^48,49 We performed a heating assay at 95° C. and noticed that after 1.5 hours ˜5% of cloacaenodin eluted at around 12.4 min instead of 10.5 min (FIGS. 7A-7B). Upon treatment with carboxypeptidase^48,49, this later eluting peak was eliminated, and various earlier-eluting peaks consistent with C-terminal truncations of 6, 9, or 10 amino acids were then observed. These truncations were not observed for the unheated cloacaenodin sample when treated with carboxypeptidase (FIGS. 7A-8B). […] This unthreaded variant in the extract may have formed because of thermal unthreading during expression and purification, exposure to organic solvents during purification, or both. To ensure that the sample we collected from the HPLC remained stable, we froze the sample immediately upon collection until lyophilization, such that the peptide was minimally kept in solution.

trypsin = molecular target: T1, trypsin (Sus scrofa, UniProt P00761); test: Protease digestion, trypsin; format: in vitro ADME; conditions: 50 μM peptide, room temperature, 30 minutes to 1 hour, LC-MS
T1 construct: purchased Promega
T1 sequence (P00761 9-231): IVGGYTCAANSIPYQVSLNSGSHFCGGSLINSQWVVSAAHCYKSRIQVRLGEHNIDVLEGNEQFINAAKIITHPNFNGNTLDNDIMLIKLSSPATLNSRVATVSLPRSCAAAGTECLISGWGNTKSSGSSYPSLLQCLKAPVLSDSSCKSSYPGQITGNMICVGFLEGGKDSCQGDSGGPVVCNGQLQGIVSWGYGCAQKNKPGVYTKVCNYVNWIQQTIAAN
Procedure: Sequencing grade trypsin (Promega) was added to 50 μM peptide samples at a 1:100 trypsin: peptide weight ratio in a buffer of 50 mM ammonium bicarbonate. The reaction was allowed to proceed at room temperature for 30 minutes to 1 hour and then quenched by 1% formic acid. An aliquot was then injected onto LC-MS for analysis.

[9] = spot-on-lawn, M63 agar, purified cloacaenodin in water

**Q.** For CC[C@H](C)[C@@H]1NC(=O)[C@H](CCCNC(=N)N)NC(=O)[C@H](CC(=O)O)NC(=O)[C@H](C(C)C)NC(=O)[C@H](CO)NC(=O)[C@H](Cc2c[nH]cn2)NC(=O)CNC(=O)CC[C@@H](C(=O)N[C@@H](Cc2ccc(O)cc2)C(=O)N[C@@H](Cc2ccccc2)C(=O)NCC(=O)N2CCC[C@H]2C(=O)N2CCC[C@H]2C(=O)NCC(=O)N[C@@H](CC(C)C)C(=O)N2CCC[C@H]2C(=O)NCC(=O)N2CCC[C@H]2C(=O)N[C@H](C(=O)N[C@@H](CC(C)C)C(=O)N[C@@H](Cc2ccccc2)C(=O)N[C@@H](Cc2ccc(O)cc2)C(=O)N[C@@H](CO)C(=O)O)C(C)C)NC(=O)[C@@H]2CCCN2C1=O [cloacaenodin] (HELM PEPTIDE1{G.H.S.V.D.R.I.P.E.Y.F.G.P.P.G.L.P.G.P.V.L.F.Y.S}$PEPTIDE1,PEPTIDE1,1:R1-9:R3$$$V2.0; C-terminus assumed), which “MIC in M63 media” value ([1]; ATCC 33072) is on record?
**A.** 1.9 µM (≈ 4.91 µg/mL)

**Q.** And the “strain susceptible to cloacaenodin” value ([1]; Enterobacter amnigenus ATCC 33072)?
**A.** * Enterobacter amnigenus

**Q.** What about the “antimicrobial activity (zones of inhibition)” value [1, 9] of the same compound?
**A.** zones of inhibition in the low micromolar range

**Q.** What about the “MIC in M63 media” value ([2]; DSM 17506) of the same compound?
**A.** 1.9 µM (≈ 4.91 µg/mL)

**Q.** What about the “antimicrobial activity (zones of inhibition)” value [2, 9] of the same compound?
**A.** zones of inhibition in the low micromolar range

**Q.** What about the “MIC in M63 media” value ([3]; ATCC 13047) of the same compound?
**A.** 7.5 µM (≈ 19.4 µg/mL)

**Q.** What about the “strain susceptible to cloacaenodin” value ([3]; Enterobacter cloacae subsp. cloacae ATCC 13047) of the same compound?
**A.** * Enterobacter cloacae subsp. cloacae

**Q.** What about the “activity against Enterobacter cloacae” value ([3]; peptide at a concentration of 15 μM, listed as threaded cloacaenodin) of the same compound?
**A.** has activity

**Q.** What about the “antimicrobial activity (zones of inhibition)” value [3, 9] of the same compound?
**A.** zones of inhibition in the low micromolar range

**Q.** What about the “MIC in M63 media” value ([4]; DSM 26271) of the same compound?
**A.** 3.8 µM (≈ 9.82 µg/mL)

**Q.** And the “strain susceptible to cloacaenodin” value ([4]; Enterobacter mori DSM 26271)?
**A.** * Enterobacter mori

**Q.** And the “antimicrobial activity (zones of inhibition)” value [4, 9]?
**A.** zones of inhibition in the low micromolar range

**Q.** And the “antimicrobial activity (zones of inhibition)” value (E. coli MG1655)?
**A.** no observed activity

**Q.** What about the “minimal inhibitory concentration (MIC)” value ([5]; six of the clinical isolates, three classified as carbapenem resistant) of the same compound?
**A.** low micromolar

**Q.** What about the antimicrobial activity ([5]; the other clinical isolates of Table 7) of the same compound?
**A.** either weak or no activity

**Q.** And the “MIC, broth microdilution assay in M63 media” value (Enterobacter amnigenus)?
**A.** 0.23 µM (≈ 0.594 µg/mL)

**Q.** And the “MIC in M63 media” value ([6]; ATCC 13047)?
**A.** 0.94 µM (≈ 2.43 µg/mL)

**Q.** What about the “MIC in M63 media” value ([6]; liquid, Enterobacter cloacae ATCC 13047) of the same compound?
**A.** 0.94 µM (liquid) (≈ 2.43 µg/mL)

**Q.** And the “intracellular toxicity (growth of E. coli on IPTG without CloD)” value [7]?
**A.** colonies did not appear; also recorded: can no longer grow

**Q.** And the “fraction eluting as later (unthreaded) peak after heating” value [8]?
**A.** ~5%

**Q.** And the proteolysis by trypsin (trypsin; listed as Threaded cloacaenodin)?
**A.** resistant to trypsin digestion

**Q.** What about the proteolysis by trypsin (trypsin; listed as threaded cloacaenodin) of the same compound?
**A.** remained resistant to proteolysis
